Data from patent publication US10829520B2, “Beta-hairpin peptidomimetics” (POLYPHOR AG, priority 2015, dated 2020).
Where a SMILES comes first, the peptide text is derived from it. Bridges are numbered along the chain shown (N, C = ends). [ ]: non-standard residue; d: D form. Pro(trans-4-F) = O=C(O)[C@@H]1C[C@@H](F)CN1; Hyp = O=C(O)[C@@H]1C[C@@H](O)CN1; Pen = CC(C)(S)[C@H](N)C(=O)O; Tle = CC(C)(C)[C@H](N)C(=O)O; dDab = NCC[C@@H](N)C(=O)O; Orn = NCCC[C@H](N)C(=O)O; Dab = NCC[C@H](N)C(=O)O

How the values were obtained:
Type in all cases: cell-based
[1] = system: human red blood cells (hRBC); test: Hemolysis of human red blood cells; conditions: red cells of human, 1 h, 100 μg/mL
How it was run: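 Fresh human red blood cells are washed in PBS, then shaken with peptide (100 μg/mL) at 37° C. for 1 h, final erythrocyte density about 0.9×10^9 cells/mL. After centrifugation, diluted supernatants are read at 540 nm against buffer (0%) and Triton X-100 (100%) lysis controls.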

[2] = system: Klebsiella pneumoniae 968733; conditions: 968733
[3] = system: Acinetobacter baumannii DSM 30008; conditions: DSM 30008
How it was run: (§1)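 Antibacterial activity is measured as MIC (μg/mL) by standard CLSI microdilution. Inocula of about 10^6 CFU/mL in MH-II broth meet two-fold peptide dilutions in medium with 0.002% Polysorbate 80, and growth is scored visually after 18-20 hours at 35° C.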

[4] = system: Escherichia coli ATCC 25922; conditions: ATCC 25922
How it was run: as §1

Escherichia coli 926415 = conditions: 926415
[5] = system: Klebsiella pneumoniae SSI #3010; conditions: SSI #3010
How it was run: as §1

[6] = system: Pseudomonas aeruginosa ATCC 27853; conditions: ATCC 27853
How it was run: as §1

[7] = system: Acinetobacter baumannii 872842; conditions: 872842

SMILES: CC(=O)N[C@@H](Cc1c[nH]c2ccccc12)C(=O)N[C@H]1CSSC[C@@H](C(=O)N[C@@H](CCCN)C(=O)N[C@H](C(=O)N[C@@H](CCN)C(=O)N[C@H]2CCNC(=O)[C@H]([C@@H](C)O)NC(=O)[C@H](CCN)NC(=O)[C@H](CCN)NC(=O)[C@H](CC(C)C)NC(=O)[C@@H](Cc3ccccc3)NC(=O)[C@H](CCN)NC2=O)[C@@H](C)O)NC(=O)[C@H](Cc2ccc(O)cc2)NC(=O)[C@H](CO)NC(=O)[C@H]([C@@H](C)O)NC(=O)[C@@H]2CCCN2C(=O)[C@H]2CCCN2C(=O)[C@H](CC(C)C)NC(=O)[C@H](C)NC(=O)[C@H](C(C)(C)C)NC1=O [Ex. 118] (Ac-WC[Tle]AL[dP]PTSYC[Orn]T[Dab][Dab][Dab][dF]L[Dab][Dab]T; disulfide 2-11; lactam 15-C)
- Hemolysis at 100 μg/mL [1]: 2%
- Klebsiella pneumoniae 968733 MIC [2]: 0.5 µg/mL
- Acinetobacter baumannii DSM 30008 MIC [3]: 0.25 µg/mL
- Escherichia coli ATCC 25922 MIC [4]: 0.5 µg/mL
- Escherichia coli 926415 MIC (Escherichia coli 926415): 0.5 µg/mL
- Klebsiella pneumoniae SSI #3010 MIC [5]: 0.5 µg/mL
- Pseudomonas aeruginosa ATCC 27853 MIC [6]: 2 µg/mL
- Acinetobacter baumannii 872842 MIC [7]: 0.25 µg/mL

SMILES: CC[C@H](C)[C@@H]1NC(=O)[C@@H]2CCCN2C(=O)[C@H]2CCCN2C(=O)[C@H](Cc2ccc(O)cc2)NC(=O)[C@@H](NC(=O)[C@@H](NC(=O)[C@H](CCN)NC(=O)[C@H](CC(C)C)NC(C)=O)C(C)C)CSSC[C@@H](C(=O)N[C@@H](Cc2ccc(O)cc2)C(=O)N[C@@H](CCN)C(=O)N[C@@H](CCCN)C(=O)N[C@H](CCN)C(=O)N[C@@H](CCN)C(=O)N[C@H]2CCNC(=O)[C@H]([C@@H](C)O)NC(=O)[C@H](CCN)NC(=O)[C@H](CCN)NC(=O)[C@H](CC(C)C)NC(=O)[C@@H](Cc3ccccc3)NC(=O)[C@H](CCN)NC2=O)NC1=O [Ex. 119] (Ac-L[Dab]VCY[dP]PICY[Dab][Orn][dDab][Dab][Dab][Dab][dF]L[Dab][Dab]T; disulfide 4-9; lactam 15-C)
- Hemolysis at 100 μg/mL [1]: 0.5%
- Klebsiella pneumoniae 968733 MIC [2]: 4 µg/mL
- Acinetobacter baumannii DSM 30008 MIC [3]: 0.5 µg/mL
- Escherichia coli ATCC 25922 MIC [4]: 0.25 µg/mL
- Escherichia coli 926415 MIC (Escherichia coli 926415): 1 µg/mL
- Klebsiella pneumoniae SSI #3010 MIC [5]: 1 µg/mL
- Pseudomonas aeruginosa ATCC 27853 MIC [6]: 0.25 µg/mL
- Acinetobacter baumannii 872842 MIC [7]: 0.5 µg/mL

SMILES: CC(=O)N[C@@H](Cc1c[nH]c2ccccc12)C(=O)N[C@@H](C)C(=O)N[C@H](C(=O)N[C@H]1CSSC[C@@H](C(=O)N[C@@H](Cc2ccc(O)cc2)C(=O)N[C@@H](C)C(=O)N[C@@H](CCCN)C(=O)N[C@H](CCN)C(=O)N[C@@H](CCN)C(=O)N[C@H]2CCNC(=O)[C@H]([C@@H](C)O)NC(=O)[C@H](CCN)NC(=O)[C@H](CCN)NC(=O)[C@H](CC(C)C)NC(=O)[C@@H](Cc3ccccc3)NC(=O)[C@H](CCN)NC2=O)NC(=O)[C@H](CC(C)C)NC(=O)[C@H](CCN)NC(=O)[C@H]2CCCN2C(=O)[C@H](C(C)C)NC1=O)C(C)C [Ex. 120] (Ac-WAVCV[dP][Dab]LCYA[Orn][dDab][Dab][Dab][Dab][dF]L[Dab][Dab]T; disulfide 4-9; lactam 15-C)
- Hemolysis at 100 μg/mL [1]: <1%
- Klebsiella pneumoniae 968733 MIC [2]: 8 µg/mL
- Acinetobacter baumannii DSM 30008 MIC [3]: 0.25 µg/mL
- Escherichia coli ATCC 25922 MIC [4]: 1 µg/mL
- Escherichia coli 926415 MIC (Escherichia coli 926415): 2 µg/mL
- Klebsiella pneumoniae SSI #3010 MIC [5]: 1 µg/mL
- Pseudomonas aeruginosa ATCC 27853 MIC [6]: 1 µg/mL
- Acinetobacter baumannii 872842 MIC [7]: 0.25 µg/mL

SMILES: CC(C)C[C@@H]1NC(=O)[C@@H](CC(C)C)NC(=O)[C@H](CCN)NC(=O)[C@@H](NC(=O)[C@H](CCN)NC(=O)[C@H](NC(=O)[C@H](CCN)NC(=O)[C@H](CCCN)NC(=O)[C@@H]2CSSC[C@H](NC(=O)[C@@H](N)Cc3c[nH]c4ccccc34)C(=O)N[C@@H](C(C)C)C(=O)N[C@@H](C)C(=O)N[C@@H](CO)C(=O)N3CCC[C@@H]3C(=O)N3CCC[C@H]3C(=O)N[C@@H](CC(C)C)C(=O)N[C@@H](CO)C(=O)N[C@@H](Cc3ccc(O)cc3)C(=O)N2)[C@H](C)O)CCNC(=O)[C@H]([C@@H](C)O)NC(=O)[C@H](CCN)NC(=O)[C@H](CCN)NC1=O [Ex. 121] (H-WCVAS[dP]PLSYC[Orn][Dab][dT][Dab][Dab][Dab][dL]L[Dab][Dab]T; disulfide 2-11; lactam 16-C)
- Hemolysis at 100 μg/mL [1]: <1%
- Klebsiella pneumoniae 968733 MIC [2]: 0.25 µg/mL
- Acinetobacter baumannii DSM 30008 MIC [3]: 0.125 µg/mL
- Escherichia coli ATCC 25922 MIC [4]: 0.125 µg/mL
- Escherichia coli 926415 MIC (Escherichia coli 926415): 0.125 µg/mL
- Klebsiella pneumoniae SSI #3010 MIC [5]: 0.25 µg/mL
- Pseudomonas aeruginosa ATCC 27853 MIC [6]: 0.5 µg/mL
- Acinetobacter baumannii 872842 MIC [7]: 0.125 µg/mL

SMILES: CC(C)C[C@@H]1NC(=O)[C@@H](CC(C)C)NC(=O)[C@H](CCN)NC(=O)[C@@H](NC(=O)[C@H](CCN)NC(=O)[C@@H](NC(=O)[C@H](CCN)NC(=O)[C@H](CCN)NC(=O)[C@H]2NC(=O)[C@H](Cc3ccc(O)cc3)NC(=O)[C@H](CO)NC(=O)[C@H](CC(C)C)NC(=O)[C@@H]3CCCN3C(=O)[C@H]3CCCN3C(=O)[C@H](CO)NC(=O)[C@H](C)NC(=O)[C@H](C(C)C)NC(=O)[C@@H](NC(=O)[C@@H](N)Cc3c[nH]c4ccccc34)C(C)(C)SSC2(C)C)[C@@H](C)O)CCNC(=O)[C@H]([C@@H](C)O)NC(=O)[C@H](CCN)NC(=O)[C@H](CCN)NC1=O [Ex. 122] (H-W[Pen]VAS[dP]PLSY[Pen][Dab][Dab]T[Dab][Dab][Dab][dL]L[Dab][Dab]T; disulfide 2-11; lactam 16-C)
- Hemolysis at 100 μg/mL [1]: 2%
- Klebsiella pneumoniae 968733 MIC [2]: 1 µg/mL
- Acinetobacter baumannii DSM 30008 MIC [3]: 0.125 µg/mL
- Escherichia coli ATCC 25922 MIC [4]: 0.0625 µg/mL
- Escherichia coli 926415 MIC (Escherichia coli 926415): 0.25 µg/mL
- Klebsiella pneumoniae SSI #3010 MIC [5]: 0.5 µg/mL
- Pseudomonas aeruginosa ATCC 27853 MIC [6]: 0.5 µg/mL
- Acinetobacter baumannii 872842 MIC [7]: 0.03125 µg/mL

SMILES: CC(C)C[C@@H]1NC(=O)[C@@H](CC(C)C)NC(=O)[C@H](CCN)NC(=O)[C@@H](NC(=O)[C@H](CCN)NC(=O)[C@@H](NC(=O)[C@H](CCN)NC(=O)[C@H](CCN)NC(=O)[C@@H]2CSSC[C@H](NC(=O)[C@@H](N)Cc3c[nH]c4ccccc34)C(=O)N[C@@H](C(C)C)C(=O)N[C@@H](C)C(=O)N[C@@H](CO)C(=O)N3CCC[C@@H]3C(=O)N3C[C@H](O)C[C@H]3C(=O)N[C@@H](CC(C)C)C(=O)N[C@@H](CO)C(=O)N[C@@H](Cc3ccc(O)cc3)C(=O)N2)[C@@H](C)O)CCNC(=O)[C@H]([C@@H](C)O)NC(=O)[C@H](CCN)NC(=O)[C@H](CCN)NC1=O [Ex. 123] (H-WCVAS[dP][Hyp]LSYC[Dab][Dab]T[Dab][Dab][Dab][dL]L[Dab][Dab]T; disulfide 2-11; lactam 16-C)
- Hemolysis at 100 μg/mL [1]: <1%
- Klebsiella pneumoniae 968733 MIC [2]: 4 µg/mL
- Acinetobacter baumannii DSM 30008 MIC [3]: 0.25 µg/mL
- Escherichia coli ATCC 25922 MIC [4]: 0.125 µg/mL
- Escherichia coli 926415 MIC (Escherichia coli 926415): 0.25 µg/mL
- Klebsiella pneumoniae SSI #3010 MIC [5]: 0.125 µg/mL
- Pseudomonas aeruginosa ATCC 27853 MIC [6]: 1 µg/mL
- Acinetobacter baumannii 872842 MIC [7]: 0.0625 µg/mL

SMILES: CC(C)C[C@@H]1NC(=O)[C@@H](CC(C)C)NC(=O)[C@H](CCN)NC(=O)[C@@H](NC(=O)[C@H](CCN)NC(=O)[C@@H](NC(=O)[C@H](CCN)NC(=O)[C@H](CCN)NC(=O)[C@@H]2CSSC[C@H](NC(=O)[C@@H](N)Cc3c[nH]c4ccccc34)C(=O)N[C@@H](C(C)C)C(=O)N[C@@H](C)C(=O)N[C@@H](CO)C(=O)N3CCC[C@@H]3C(=O)N3C[C@H](F)C[C@H]3C(=O)N[C@@H](CC(C)C)C(=O)N[C@@H](CO)C(=O)N[C@@H](Cc3ccc(O)cc3)C(=O)N2)[C@@H](C)O)CCNC(=O)[C@H]([C@@H](C)O)NC(=O)[C@H](CCN)NC(=O)[C@H](CCN)NC1=O [Ex. 124] (H-WCVAS[dP][Pro(trans-4-F)]LSYC[Dab][Dab]T[Dab][Dab][Dab][dL]L[Dab][Dab]T; disulfide 2-11; lactam 16-C)
- Hemolysis at 100 μg/mL [1]: 1%
- Klebsiella pneumoniae 968733 MIC [2]: 0.5 µg/mL
- Acinetobacter baumannii DSM 30008 MIC [3]: 0.125 µg/mL
- Escherichia coli ATCC 25922 MIC [4]: 0.0625 µg/mL
- Escherichia coli 926415 MIC (Escherichia coli 926415): 0.125 µg/mL
- Klebsiella pneumoniae SSI #3010 MIC [5]: 0.125 µg/mL
- Pseudomonas aeruginosa ATCC 27853 MIC [6]: 0.5 µg/mL
- Acinetobacter baumannii 872842 MIC [7]: 0.25 µg/mL

SMILES: CC(C)C[C@@H]1NC(=O)[C@H](C)NC(=O)[C@H]2CCCN2C(=O)[C@H](CO)NC(=O)[C@H](C)NC(=O)[C@H](C(C)C)NC(=O)[C@@H](NC(=O)[C@@H](N)Cc2c[nH]c3ccccc23)CSSC[C@@H](C(=O)N[C@@H](CCN)C(=O)N[C@@H](CCN)C(=O)N[C@H](C(=O)N[C@@H](CCN)C(=O)N[C@H]2CCNC(=O)[C@H]([C@@H](C)O)NC(=O)[C@H](CCN)NC(=O)[C@H](CCN)NC(=O)[C@H](CC(C)C)NC(=O)[C@@H](CC(C)C)NC(=O)[C@H](CCN)NC2=O)[C@@H](C)O)NC(=O)[C@H](Cc2ccc(O)cc2)NC(=O)[C@H](CO)NC1=O [Ex. 125] (H-WCVAS[dP]ALSYC[Dab][Dab]T[Dab][Dab][Dab][dL]L[Dab][Dab]T; disulfide 2-11; lactam 16-C)
- Hemolysis at 100 μg/mL [1]: 1%
- Klebsiella pneumoniae 968733 MIC [2]: 1 µg/mL
- Acinetobacter baumannii DSM 30008 MIC [3]: 0.125 µg/mL
- Escherichia coli ATCC 25922 MIC [4]: 0.0625 µg/mL
- Escherichia coli 926415 MIC (Escherichia coli 926415): 0.25 µg/mL
- Klebsiella pneumoniae SSI #3010 MIC [5]: 0.125 µg/mL
- Pseudomonas aeruginosa ATCC 27853 MIC [6]: 0.5 µg/mL
- Acinetobacter baumannii 872842 MIC [7]: 0.0625 µg/mL
